Measurements as given in patent US12180193B2, “Accelerating fibrosarcoma protein degrading compounds and associated methods of use” (Arvinas Operations, Inc., priority 2020, dated 2024).

Tests used:
BRAF V600E = biological target: T1, BRAF V600E (Homo sapiens, UniProt P15056, V600E); test: Cellular assay of target protein degradation, T-Rex 293 cells stably transfected with HA-BRAF_V600E (HA immunofluorescence, high content imaging); assay type: cell-based; settings: T-Rex 293 HA-BRAF V600E; for DC50: half maximal degradation, read-out: BRaf V600E DC50; for Dmax: maximum degradation observed
T1 construct: expressed in transfected cells
T1 sequence (P15056 whole entry V600E): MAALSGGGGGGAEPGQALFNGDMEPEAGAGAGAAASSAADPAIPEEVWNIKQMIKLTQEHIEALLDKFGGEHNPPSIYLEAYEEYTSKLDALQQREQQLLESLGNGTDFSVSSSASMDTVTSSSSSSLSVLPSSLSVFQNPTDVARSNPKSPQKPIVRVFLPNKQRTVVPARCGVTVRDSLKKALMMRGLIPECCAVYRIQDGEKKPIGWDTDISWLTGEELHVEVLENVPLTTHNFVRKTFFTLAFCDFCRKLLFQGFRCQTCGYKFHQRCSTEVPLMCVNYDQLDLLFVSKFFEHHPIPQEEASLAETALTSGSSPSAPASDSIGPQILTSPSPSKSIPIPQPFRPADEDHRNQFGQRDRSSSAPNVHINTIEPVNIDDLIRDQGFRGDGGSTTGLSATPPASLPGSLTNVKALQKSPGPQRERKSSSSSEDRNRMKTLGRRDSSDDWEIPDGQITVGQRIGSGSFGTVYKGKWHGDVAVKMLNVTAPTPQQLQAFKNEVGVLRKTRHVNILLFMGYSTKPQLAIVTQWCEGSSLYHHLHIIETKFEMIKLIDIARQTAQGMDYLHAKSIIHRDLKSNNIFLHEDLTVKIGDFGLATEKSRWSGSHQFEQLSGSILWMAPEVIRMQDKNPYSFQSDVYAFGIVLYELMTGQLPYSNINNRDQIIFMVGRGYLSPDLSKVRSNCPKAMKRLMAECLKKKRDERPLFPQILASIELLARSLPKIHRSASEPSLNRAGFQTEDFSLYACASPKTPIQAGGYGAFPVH
Method in brief: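 HA immunofluorescence on fixed cells, imaged by high-content reader, measured loss of HA-BRAF V600E in stably transfected T-Rex 293 cells induced with 1 ng/mL doxycycline. Compounds were applied for 24 h at 37 °C (final 0.1 nM–1 μM, 0.1% DMSO); DC50 and Dmax (% of control) were reported.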

BRAF G466V = biological target: T2, BRAF G466V (Homo sapiens, UniProt P15056, G466V); test: Cellular assay of target protein degradation, T-Rex 293 cells stably transfected with HA-BRAF G466V (HA immunofluorescence, high content imaging); assay type: cell-based; settings: T-Rex 293 HA-BRAF G466V; for DC50: half maximal degradation, read-out: BRaf G466V DC50; for Dmax: maximum degradation observed
T2 construct: expressed in transfected cells
T2 sequence (P15056 whole entry G466V): as the sequence (P15056 whole entry V600E) above, with G466V, E600V counted along it
Method in brief: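 HA-BRAF G466V levels were read by HA immunofluorescence and high-content imaging after 24 h compound exposure (final 30 nM–3 pM, 0.1% DMSO, 37 °C). Expression was induced with 0.75 ng/mL doxycycline. Outputs: half-maximal degradation concentration (DC50) and maximal degradation (Dmax) relative to control.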

Row | SMILES | DC50 (BRAF V600E) [nM] | Dmax (BRAF V600E) [%] | DC50 (BRAF G466V) [nM] | Dmax (BRAF G466V) [%]
1 | O=C1CC[C@@H](N2Cc3cc(C4CCN(CC5CCN(c6ccc(-c7cnc8[nH]cc(C(=O)c9c(F)ccc(NS(=O)(=O)N%10CCC(F)(F)C%10)c9F)c8c7)cc6)CC5)CC4)ccc3C2=O)C(=O)N1 [Compound 233, N-{3-[5-(4-{4-[(4-{2-[(3R)-2,6-dioxopiperidin-3-yl]-1-oxo-2,3-dihydro-1H-isoindol-5-yl}piperidin-1-yl)methyl]piperidin-1-yl}phenyl)-1H-pyrrolo[2,3-b]pyridine-3-carbonyl]-2,4-difluorophenyl}-3,3-difluoropyrrolidine-1-sulfonamide] | 5 to 50 | 35 to 70 | 1 to 10 | > 70
2 | CC(C)CS(=O)(=O)Nc1ccc(F)c(C(=O)c2c[nH]c3ncc(-c4ccc(N5CCC(CN6CCC(c7ccc8c(c7)CN([C@H]7CCC(=O)NC7=O)C8=O)CC6)CC5)cc4)cc23)c1F [Compound 204, N-{3-[5-(4-{4-[(4-{2-[(3S)-2,6-dioxopiperidin-3-yl]-1-oxo-2,3-dihydro-1H-isoindol-5-yl}piperidin-1-yl)methyl]piperidin-1-yl}phenyl)-1H-pyrrolo[2,3-b]pyridine-3-carbonyl]-2,4-difluorophenyl}-2-methylpropane-1-sulfonamide] | < 5 | 35 to 70 | < 1 | 35 to 70
3 | O=C1CCC(N2Cc3cc(N4CCN(CC5CN(c6ccc(-c7cnc8[nH]cc(C(=O)c9c(F)ccc(NS(=O)(=O)N%10CC[C@@H](F)C%10)c9F)c8c7)cc6F)C5)CC4)ccc3C2=O)C(=O)N1 (stereo partly drawn) [Compound 131, (3R)-N-[3-(5-{4-[3-({4-[2-(2,6-dioxopiperidin-3-yl)-1-oxo-2,3-dihydro-1H-isoindol-5-yl]piperazin-1-yl}methyl)azetidin-1-yl]-3-fluorophenyl}-1H-pyrrolo[2,3-b]pyridine-3-carbonyl)-2,4-difluorophenyl]-3-fluoropyrrolidine-1-sulfonamide] | 5 to 50 | 35 to 70 | 1 to 10 | 35 to 70
4 | O=C1CC[C@H](N2Cc3cc(N4CCC(CN5CC6(C5)CN(c5ccc(-c7cnc8[nH]cc(C(=O)c9c(F)ccc(NS(=O)(=O)N%10CC[C@@H](F)C%10)c9F)c8c7)cc5)C6)CC4)c(F)cc3C2=O)C(=O)N1 [Compound 55, (3R)-N-{3-[5-(4-{6-[(1-{2-[(3S)-2,6-dioxopiperidin-3-yl]-6-fluoro-1-oxo-2,3-dihydro-1H-isoindol-5-yl}piperidin-4-yl)methyl]-2,6-diazaspiro[3.3]heptan-2-yl}phenyl)-1H-pyrrolo[2,3-b]pyridine-3-carbonyl]-2,4-difluorophenyl}-3-fluoropyrrolidine-1-sulfonamide] | 5 to 50 | 35 to 70 | < 1 | > 70
5 | C[C@@H]1CC[C@@H](C)N1S(=O)(=O)Nc1ccc(F)c(C(=O)c2c[nH]c3ncc(-c4ccc(N5CCC(CN6CCC(c7ccc8c(c7)CN([C@H]7CCC(=O)NC7=O)C8=O)CC6)CC5)cc4)cc23)c1F [Compound 277, (2R,5R)-N-{3-[5-(4-{4-[(4-{2-[(3S)-2,6-dioxopiperidin-3-yl]-1-oxo-2,3-dihydro-1H-isoindol-5-yl}piperidin-1-yl)methyl]piperidin-1-yl}phenyl)-1H-pyrrolo [2,3-b]pyridine-3-carbonyl]-2,4-difluorophenyl}-2,5-dimethylpyrrolidine-1-sulfonamide] | 5 to 50 | < 35 | 10 to 30 | > 70
6 | O=C1CCN(c2ccc(C3CCN(CC4CCN(c5ccc(-c6cnc7[nH]cc(C(=O)c8c(F)ccc(NS(=O)(=O)N9CC[C@@H](F)C9)c8F)c7c6)cc5)CC4)CC3)cc2F)C(=O)N1 [Compound 140, (3R)-N-[3-(5-{4-[4-({4-[4-(2,4-dioxo-1,3-diazinan-1-yl)-3-fluorophenyl]piperidin-1-yl}methyl)piperidin-1-yl]phenyl}-1H-pyrrolo[2,3-b]pyridine-3-carbonyl)-2,4-difluorophenyl]-3-fluoropyrrolidine-1-sulfonamide] | 5 to 50 | 35 to 70 | < 1 | 35 to 70
7 | O=C1CC[C@@H](N2Cc3cc(OC[C@@H](O)CN4CC5(C4)CN(c4ccc(-c6cnc7[nH]cc(C(=O)c8c(F)ccc(NS(=O)(=O)N9CC[C@@H](F)C9)c8F)c7c6)cc4)C5)ccc3C2=O)C(=O)N1 [Compound 166, (3R)-N-{3-[5-(4-{6-[(2)S-3-({2-[(3R)-2,6-dioxopiperidin-3-yl]-1-oxo-2,3-dihydro-1H-isoindol-5-yl}oxy)-2-hydroxypropyl]-2,6-diazaspiro[3.3]heptan-2-yl}phenyl)-1H-pyrrolo[2,3-b]pyridine-3-carbonyl]-2,4-difluorophenyl}-3-fluoropyrrolidine-1-sulfonamide] | 5 to 50 | 35 to 70 | 1 to 10 | > 70
8 | O=C1CCC(N2Cc3cc(N4CCC(CN5CC6(CCN(c7ccc(-c8cnc9[nH]cc(C(=O)c%10c(F)ccc(NS(=O)(=O)N%11CC[C@@H](F)C%11)c%10F)c9c8)cc7F)C6)C5)CC4)ccc3C2=O)C(=O)N1 (stereo partly drawn) [Compound 111, (3R)-N-[3-(5-{4-[2-({1-[2-(2,6-dioxopiperidin-3-yl)-1-oxo-2,3-dihydro-1H-isoindol-5-yl]piperidin-4-yl}methyl) 2,6-diazaspiro[3.4]octan-6-yl]-3-fluorophenyl}-1H-pyrrolo[2,3-b]pyridine-3-carbonyl)-2,4-difluorophenyl]-3-fluoropyrrolidine-1-sulfonamide] | < 5 | 35 to 70 | 1 to 10 | 35 to 70
9 | COc1cc(N2CC3(CN(CC4CCN(c5ccc(-c6cnc7[nH]cc(C(=O)c8c(F)ccc(NS(=O)(=O)N9CC[C@@H](F)C9)c8F)c7c6)cn5)CC4)C3)C2)cc2c1C(=O)N(C1CCC(=O)NC1=O)C2 (stereo partly drawn) [Compound 133, (3R)-N-[3-(5-{6-[4-({6-[2-(2,6-dioxopiperidin-3-yl)-7-methoxy-1-oxo-2,3-dihydro-1H-isoindol-5-yl]-2,6-diazaspiro[3.3]heptan-2-yl}methyl)piperidin-1-yl]pyridin-3-yl}-1H-pyrrolo[2,3-b]pyridine-3-carbonyl)-2,4-difluorophenyl]-3-fluoropyrrolidine-1-sulfonamide] | 5 to 50 | 35 to 70 | < 1 | > 70
10 | CN(CCN1CCN(c2ccc3c(c2)CN(C2CCC(=O)NC2=O)C3=O)CC1)[C@H]1CC[C@H](Oc2ccc(-c3cnc4[nH]cc(C(=O)c5c(F)ccc(NS(=O)(=O)N6CC[C@@H](F)C6)c5F)c4c3)cc2)CC1 (stereo partly drawn) [Compound 145, (3R)-N-{2,4-difluoro-3-[5-(4-{[(1r,4r)-4-[(2-{4-[2-(2,6-dioxopiperidin-3-yl)-1-oxo-2,3-dihydro-1H-isoindol-5-yl]piperazin-1-yl}ethyl)(methyl)amino]cyclohexyl]oxy}phenyl)-1H-pyrrolo[2,3-b]pyridine-3-carbonyl]phenyl}-3-fluoropyrrolidine-1-sulfonamide] | 5 to 50 | 35 to 70 | 1 to 10 | > 70
11 | O=C1CC[C@@H](NC(=O)c2cc(C3CCN(CC4CCN(c5ccc(-c6cnc7[nH]cc(C(=O)c8c(F)ccc(NS(=O)(=O)N9CC[C@@H](F)C9)c8F)c7c6)cc5)CC4)CC3)ccc2F)C(=O)N1 [Compound 197, 5-(1-{[1-(4-{3-[2,6-difluoro-3-({[(3R)-3-fluoropyrrolidin-1-yl]sulfonyl}amino)benzoyl]-1H-pyrrolo[2,3-b]pyridin-5-yl}phenyl)piperidin-4-yl]methyl}piperidin-4-yl)-N-[(3R)-2,6-dioxopiperidin-3-yl]-2-fluorobenzamide] | 5 to 50 | < 35 | 1 to 10 | 35 to 70
12 | C[C@H]1C[C@@H](CN2CCC(c3ccc4c(c3)CN([C@@H]3CCC(=O)NC3=O)C4=O)CC2)CCN1c1ccc(-c2cnc3[nH]cc(C(=O)c4c(F)ccc(NS(=O)(=O)N5CC[C@@H](F)C5)c4F)c3c2)cc1 [Compound 240, (3R)-N-[3-(5-{4-[(2S,4S)-4-[(4-{2-[(3R)-2,6-dioxopiperidin-3-yl]-1-oxo-2,3-dihydro-1H-isoindol-5-yl}piperidin-1-yl)methyl]-2-methylpiperidin-1-yl]phenyl}-1H-pyrrolo[2,3-b]pyridine-3-carbonyl)-2,4-difluorophenyl]-3-fluoropyrrolidine-1-sulfonamide] | 5 to 50 | 35 to 70 | 1 to 10 | > 70
13 | O=C1CCC(N2Cc3cc(N4CCC(F)(CN5CC6(C5)CN(c5ccc(-c7cnc8[nH]cc(C(=O)c9c(F)ccc(NS(=O)(=O)N%10CC[C@@H](F)C%10)c9F)c8c7)cc5)C6)CC4)ccc3C2=O)C(=O)N1 (stereo partly drawn) [Compound 19, (3R)-N-[3-(5-{4-[6-({1-[2-(2,6-dioxopiperidin-3-yl)-1-oxo-2,3-dihydro-1H-isoindol-5-yl]-4-fluoropiperidin-4-yl}methyl)-2,6-diazaspiro[3.3]heptan-2-yl]phenyl}-1H-pyrrolo[2,3-b]pyridine-3-carbonyl)-2,4-difluorophenyl]-3-fluoropyrrolidine-1-sulfonamide] | 5 to 50 | 35 to 70 | 1 to 10 | 35 to 70
